In patent US5952324A, “Bicyclic oxazine and thiazine oxazolidinone antibacterials” (Pharmacia & Upjohn Company, priority 1997, dated 1999):

Test system: S. aureus UC ® 9213
Assay: In vivo murine assay, ED50 against S. aureus UC 9213 infection (survival, female mice)
Conditions: Staphylococcus aureus, UC9213, 144 h; PO; female mice infected intraperitoneally; dosed one and five hours after infection, six dose levels; survival six days, probit analysis; read-out: ED50 (mg/kg), Example, PO
Method: Antimicrobial activity was tested in vivo using a Murine Assay procedure. Groups of female mice were injected intraperitoneally with bacteria which were thawed just prior to use and suspended in brain heart infusion with 4% Brewer's yeast UC9213 (Staphylococcus aureus) or brain hear infusion (Streptococcus species). Antibiotic treatment a six dose levels per drug was administered on hour and five hours after infection by either oral or subcutaneous routes. Survival was observed daily for six days. ED50 values based on mortality ratios were calculated using probit analysis. The subject compounds were compared against a well-known antibacterial (Vancomycin) as a control.
In Vivo Activity Against S. aureus UC ® 9213

| SMILES | ED50 |
| --- | --- |
| CC(=O)NC[C@H]1CN(c2ccc(N3C[C@@H]4C[S+]([O-])C[C@@H]4C3)c(F)c2)C(=O)O1 (stereo partly drawn) [Example 5, (S)-N-[[3-[3-fluoro-4-(tetrahydro-1H-thieno[3,4-c]pyrrol-5(3H)-yl)phenyl]-2-oxo-5-oxazolidinyl]methyl]acetamide, S-oxide] | 10 mg/kg |
| CC(=O)NC[C@H]1CN(c2ccc(N3C[C@@H]4C[C@H]3CO4)c(F)c2)C(=O)O1 [Example 1, (S)-N-[[3-[4-[(1S,4S)-2-oxa-5-azabicyclo[2.2.1]heptan-5-yl]-3-fluorophenyl]-2-oxo-5-oxazolikinyl]methyl]acetamide] | 7.7 mg/kg |
| CC(=O)NC[C@H]1CN(c2ccc(N3C[C@@H]4CS(=O)(=O)C[C@@H]4C3)c(F)c2)C(=O)O1 [Example 6, (S)-N-[[3-[3-fluoro-4-(tetrahydro-1H-thieno[3,4-c]pyrrol-5(3H)-yl)phenyl]-2-oxo-5-oxazolidinyl]methyl]acetamide, S,S-dioxide] | 3.5 mg/kg |
| CC(=O)NC[C@H]1CN(c2ccc(N3C[C@@H]4C[C@H]3CS4)c(F)c2)C(=O)O1 [Example 2, (S)-N-[[3-[3-fluoro-4-[(1S,4S)-2-thia-5-azabicyclo[2.2.1]heptan-5-yl]-phenyl]-2-oxo-5-oxazolidinyl]methyl]acetamide] | 4.2 mg/kg |
| CC(=O)NC[C@H]1CN(c2ccc(N3C[C@H]4CSC[C@H]4C3)c(F)c2)C(=O)O1 [Example 4, (S)-N-[[3-[3-fluoro-4-(tetrahydro-1H-thieno[3,4-c]pyrrol-5(3H)-yl)phenyl]-2-oxo-5-oxazolidinyl]methyl]acetamide] | 4.3 mg/kg |
